This series in a line: solvent given as SMILES.

Results on 43 compounds are retold here after the Deep4Chem optical property database.

Several values for one entry are separate records, joined by “and”; a condition that tells them apart may be missing. Equal entries are not always repeated.

The compound `O=C(O)CCCCCn1c2ccc(Br)cc2c(=O)c2cc(S(=O)(=O)O)ccc21` displayed an absorption maximum (in O) of 416 nm.

For the setting “in Cc1ccccc1”, `C(#Cc1cc2ccc3cccc4ccc(c1)c2c34)c1ccccc1` had an absorption maximum of 390 nm.

For the compound `CN(C)c1ccc(/C=C/C=C2\CC/C(=C\C=C\c3ccc(N(C)C)cc3)C2=O)cc1`, the absorption maximum worked out at 480 nm (in C1CCCCC1); 490 nm (in CC#N); 493 nm (in CC(C)=O); 515 nm (in CC(C)O); 478 nm (in CCCCCC); 524 nm (in CCCCO). In addition, the absorption maximum runs as follows: (in CCCO) 515 nm; (in CCO) 510 nm; (in CCOC(C)=O) 480 nm; (in CCOCC) 475 nm; (in CN(C)C=O) 507 nm; (in CO) 523 nm. For the same compound, the absorption maximum by setting is: (in CS(C)=O) 512 nm; (in Cc1ccccc1) 495 nm; (in ClC(Cl)(Cl)Cl) 465 nm; (in ClCCl) 503 nm; (in OCC(F)(F)F) 534 nm; (in S=C=S) 480 nm. Further, the absorption maximum was 475 nm (in c1ccccc1) and 507 nm (in c1ccncc1).

For the setting “in Cc1ccccc1”, `CC(C)(C)c1ccc(N(c2ccc(S(=O)(=O)c3ccc(S(=O)(=O)c4ccc(N(c5ccc(C(C)(C)C)cc5)c5ccccc5C(C)(C)C)cc4)cc3)cc2)c2ccccc2C(C)(C)C)cc1` had an absorption maximum of 351 nm.

With `Oc1ccc(C2=N[N+]3=Cc4c(ccc5ccccc45)O[B-]3(c3ccc([B-]45OC(c6ccc(O)cc6)=N[N+]4=Cc4c(ccc6ccccc46)O5)cc3)O2)cc1` (stereo unspecified), the absorption maximum (in C1CCOC1) amounted to 424 nm.

For `Cc1cc2oc3ccccc3c2c2[nH]c3ccccc3c12`, the absorption maximum (in ClCCl) is given as 337 nm.

Consider `CCCCCCCCCCCCCCCCn1c(-c2cc(-c3nc4ccc(C)cc4n3CCCCCCCCCCCCCCCC)cc(-c3nc4ccc(C)cc4n3CCCCCCCCCCCCCCCC)c2)nc2ccc(C)cc21`, for which the absorption maximum (in ClCCl) was determined as 306 nm.

In turn, `CCOC(=O)c1c(-c2cc3cc(OC)ccc3oc2=O)nn(-c2cccc(C)c2)c1C(=O)OCC` had an absorption maximum (in ClCCl) of 351 nm.

The compound `CCCCCCCCc1ccc(-n2c3c4ccccc4nnc3c3c2c2nnc4ccccc4c2n3-c2ccc(CCCCCCCC)cc2)cc1` displayed an absorption maximum (in Cc1ccccc1) of 316 nm.

`C(#Cc1cccs1)C(C#Cc1cccs1)=Cc1ccc(C=C(C#Cc2cccs2)C#Cc2cccs2)s1` had an absorption maximum (in ClC(Cl)Cl) of 486 nm.

With `N#C/C(=C\c1ccc(-c2ccncc2)cc1)c1ccc(-c2ccncc2)cc1`, the absorption maximum (in ClCCl) was 356 nm.

With `c1ccc2c(c1)c1ccccc1n2-c1ccc(-c2ccc3nc(-c4ccc(-n5c6ccccc6c6ccccc65)cc4)nn3c2)cc1`, under “in C1CCOC1”, the absorption maximum is 341 nm.

Take `CC1(C)c2ccccc2N(c2ccc3c(c2)C(c2ccccc2)(c2ccccc2)c2cc(N4c5ccccc5C(C)(C)c5ccccc54)ccc2S3(=O)=O)c2ccccc21`: the absorption maximum (in Cc1ccccc1) amounted to 364 nm.

Regarding `CCCCCCOc1cc2cc(=O)oc3ccc4cccc1c4c23`, the absorption maximum (in CC1CCCO1) came out at 460 nm.

Turning to `CCCC1(CCC)c2cc(-c3ccc4c(c3)C(CCC)(CCC)c3cc(-c5ccc6c(c5)C(CCC)(CCC)c5cc(C(C)(C)CC)ccc5-6)ccc3-4)ccc2-c2ccc(-c3ccc4c(c3)C(CCC)(CCC)c3cc(C(C)(C)CC)ccc3-4)cc21`, for the setting “in C1CCCCC1”, the absorption maximum is given as 362 nm.

`CC1(C)c2ccccc2N(c2ccc(-c3nc(C#N)c(C#N)nc3-c3ccc(N4c5ccccc5C(C)(C)c5ccccc54)cc3)cc2)c2ccccc21` yielded an absorption maximum (in Cc1ccccc1) of 436 nm.

In the case of `CCCCCCCCCCCCN1C(=O)c2ccc3c4ccc5c6c(ccc(c7ccc(c2c37)C1=O)c64)C(=O)NC5=O`, the absorption maximum (in CN(C)C=O) worked out at 522 nm.

Compound `CCCC1(CCC)c2cc(-c3ccc(C(C)(C)C)cc3)ccc2-c2ccc(-c3ccc4c(c3)C(CCC)(CCC)c3cc(-c5ccc(C(C)(C)C)cc5)ccc3-4)cc21` came in with an absorption maximum (in C1CCCCC1) of 346 nm.

With `CCC1=C(C)c2cc3c(OC)cc(OC)cc3c(=O)n2C1=O`, the absorption maximum is on record as 433 nm (in CC#N), 433 nm (in CO), 434 nm (in CS(C)=O) and 434 nm (in ClC(Cl)Cl).

Compound `COc1ccc2c(C=C(C#N)C#N)cc3ccc4cc(C=C(C#N)C#N)c5ccc(OC)cc5c4c3c2c1` had an absorption maximum (in ClC(Cl)Cl) of 456 nm.

Turning to `CC1(C)CC(=O)c2cc(F)c(F)cc2N1`, the absorption maximum reads like this: (in CC#N) 369 nm; (in CCO) 381 nm.

Under “in C1CCCCC1”, `Cc1cc(C)c(B2c3cc(C(C)(C)C)ccc3-c3cccc4cc(C(C)(C)C)cc2c34)c(C)c1` came in with an absorption maximum of 409 nm.

Take `CC1(C)CCc2c(c3ccccc3c3nc4ccccc4nc23)O1`: the absorption maximum was determined as 429.92 nm (in C1CCCCC1); 434.03 nm (in C1CCOC1); 438.98 nm (in CN(C)C=O); 434.97 nm (in CO); 437.06 nm (in ClC(Cl)Cl); 431.03 nm (in c1ccccc1).

Take `CC(C)(C)c1ccc(Oc2cc3c4c(cc(Oc5ccc(C(C)(C)C)cc5)c5c6c(Oc7ccc(C(C)(C)C)cc7)cc7c8c(cc(Oc9ccc(C(C)(C)C)cc9)c(c2c45)c86)C(=O)N(Cc2ccccc2)C7=O)C(=O)N(Cc2ccccc2)C3=O)cc1`: the absorption maximum (in ClC(Cl)Cl) is 581 nm.

`C(#Cc1ccncc1)C(C#Cc1ccncc1)=Cc1ccc(C=C(C#Cc2ccncc2)C#Cc2ccncc2)s1` returned an absorption maximum (in ClC(Cl)Cl) of 522 nm.

Take `FC(F)(F)c1ccc2oc3nc4oc5ccc(N6c7ccccc7Oc7ccccc76)cc5c4cc3c2c1`: the absorption maximum (in ClC(Cl)Cl) is 344 nm.

For the compound `Cn1nc(-c2ccc(C(F)(F)F)cc2)cc1-c1ccccc1`, the absorption maximum (in ClCCl) is recorded as 260 nm.

In the case of `CN(C)c1ccc(/C=C/C(=O)O)cc1`, the absorption maximum by setting is: (in C1CCCCC1) 358 nm; (in C1CCOC1) 358 nm; (in C1COCCO1) 356 nm; (in CC#N) 364 nm; (in CCCCO) 356 nm; (in CCCO) 355 nm. This compound yielded an absorption maximum (in CCOC(C)=O) of 358 nm; an absorption maximum (in CO) of 357 nm; an absorption maximum (in Cc1ccccc1) of 362 nm; an absorption maximum (in O) of 323 nm; an absorption maximum (in c1ccccc1) of 365 nm.

For `O=C1c2cc3ccccc3cc2C2=Nc3ccc4ccccc4[n+]3[B-](F)(F)N12`, the absorption maximum (in ClCCl) came out at 419 nm.

For `Cc1ccc(C2=C3C=c4c(oc5ccccc45)=[N+]3[B-](F)(F)n3c2cc2c4ccccc4oc23)cc1`, the absorption maximum by setting is: (in C1CCCCC1) 584.5 nm; (in C1CCOC1) 581.5 nm; (in CC#N) 578 nm; (in CCOC(C)=O) 579.5 nm; (in CN(C)C=O) 581.5 nm; (in CO) 578 nm. Moreover, the absorption maximum (in Cc1ccccc1) is reported as 588 nm; the absorption maximum (in ClCCl) is 584 nm and 583 nm.

Consider `CC(=O)Nc1ccc2ccc3cccc4ccc1c2c34`, for which the absorption maximum is, setting by setting: (in CC#N) 339 nm; (in CCCCOCCCC) 341 nm; (in CO) 338 nm.

Take `C(=C(c1ccccc1)c1ccccc1)c1ccc(-c2cc(-c3ccc(C=C(c4ccccc4)c4ccccc4)cc3)cc(-c3ccc(C=C(c4ccccc4)c4ccccc4)cc3)c2)cc1`: under “in C1CCOC1”, the absorption maximum is on record as 333 nm.

In the case of `NC(=O)C1=CN([C@H]2C[C@H](O)[C@@H](COP(=O)([O-])OP(=O)([O-])OC[C@H]3O[C@@H](n4cnc5c(N)ncnc54)C[C@@H]3O)O2)C=CC1`, where the note is “in O”, the absorption maximum was 350 nm.

On to `COc1ccc2c3c(c4ccc(OC)cc4c2c1)C1(c2ccccc2-c2ccccc21)c1ccccc1-3`, for which, under “in C1CCCCC1”, the absorption maximum came out at 386 nm.

`CCC1(CC)c2ccccc2-c2ccc(C#Cc3cc(C#Cc4ccc5c(c4)C(CC)(CC)c4ccccc4-5)c4ccc5c(C#Cc6ccc7c(c6)C(CC)(CC)c6ccccc6-7)cc(C#Cc6ccc7c(c6)C(CC)(CC)c6ccccc6-7)c6ccc3c4c65)cc21`: the absorption maximum (in Cc1ccccc1) worked out at 488 nm.

For the compound `CC1=CC(C)=[N+]2C1=C(c1c3ccccc3c(C)c3ccccc13)c1c(C)cc(C)n1[B-]2(F)F`, the absorption maximum reads like this: (in CC#N) 503 nm; (in CCCCCC) 505 nm; (in CCO) 504 nm; (in CN(C)C=O) 506 nm; (in Cc1ccccc1) 509 nm; (in ClCCl) 506 nm.

For the compound `CCCCCCCCCCCCC(CCCCCCCCCC)Cn1c2cc(/C=C/C=C(C#N)C#N)c3cccc4c5cccc6c(/C=C/C=C(C#N)C#N)cc1c(c65)c2c34` (stereo unspecified), the absorption maximum came out at 638 nm (in C1CCCCC1), 599 nm (in CC#N), 597 nm (in Cc1ccccc1) and 611 nm (in ClCCl).

Regarding `Nc1ccc(C#Cc2ccc3ccc4ccc(C#Cc5ccc(N)cc5)c5ccc2c3c45)cc1`, the absorption maximum by setting is: (in C1COCCO1) 420 nm; (in CC(C)=O) 421 nm; (in CCCCCC) 421 nm; (in CCCCCCO) 421 nm; (in CCO) 419 nm; (in CCOC(C)=O) 419 nm. Also, the absorption maximum is given as 415 nm (in CO), 417 nm (in Cc1ccccc1) and 417 nm (in ClCCl).

For `CN(C)c1ccc(-c2cc(-c3ccccc3)nn2C)cc1`, the absorption maximum (in ClCCl) is 280 nm.

Regarding `C[Si](c1ccc(-c2nc3ccccc3n2-c2ccccc2)cc1)(c1ccc(-c2nc3ccccc3n2-c2ccccc2)cc1)c1ccc(-c2nc3ccccc3n2-c2ccccc2)cc1`, where the note is “in ClCCl”, the absorption maximum is 307 nm.

Regarding `CN(C)c1ccc(/C=C/c2cc(/C=C/c3ccc(N(C)C)cc3)nc(/C=C/c3ccccc3)n2)cc1`, the absorption maximum (in ClCCl) came out at 423 nm.

`CC[Si](CC)(CC)c1cc2ccc3cccc4ccc(c1C(=O)NC(C)(C)C)c2c34` came in with an absorption maximum (in ClC(Cl)Cl) of 381 nm.

Regarding `C/C=C/C=C/C1=NC(=C\c2ccc([O-])cc2)/C(=O)N1C`, where the note is “in O”, the absorption maximum came to 482 nm.
